PubChem BioAssay AID330 (DTP/NCI, 2004)
Where “and” joins values, the source holds several entries; their conditions need not be identical. Equal values may be shown once. Toxic doses and inconclusive results are not listed. The calls were made as follows: active = survival T/C of 150% or more; inactive = T/C below 125% in these data.

Tested on: P388 leukemia ip, CD2F1 mice, survival T/C
Assay: NCI In Vivo Anticancer Drug Screen. Data for tumor model P388 Leukemia (intraperitoneal) in CD2F1 (CDF1) mice
Conditions: endpoint: median survival time, higher = longer survival
Summary of the method: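 Mice carrying the transplanted tumor received test compound or vehicle. Survival was recorded in each group, and the value is the treated-group measurement divided by that of the vehicle-treated control group.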

[1] = dose: 50.0 mg/kg/injection, schedule: Q01DX009 (ip), vehicle: saline with Tween-80
[2] = dose: 50.0 mg/kg/injection, schedule: Q01DX009 (ip), vehicle: saline
[3] = dose: 60.0 mg/kg/injection, schedule: Q01DX005 (ip), vehicle: saline
[4] = dose: 120.0 mg/kg/injection, schedule: Q01DX005 (ip), vehicle: saline
[5] = dose: 50.0 mg/kg/injection, schedule: Q01DX009 (ip), vehicle: Klucel (hydroxypropylcellulose) (HPC)
[6] = dose: 100.0 mg/kg/injection, schedule: Q01DX009 (ip), vehicle: Klucel (hydroxypropylcellulose) (HPC)
[7] = dose: 200.0 mg/kg/injection, schedule: Q01DX009 (ip), vehicle: Klucel (hydroxypropylcellulose) (HPC)
[8] = dose: 100.0 mg/kg/injection, schedule: Q04DX002 (ip), vehicle: saline with Tween-80
[9] = dose: 200.0 mg/kg/injection, schedule: Q04DX002 (ip), vehicle: saline with Tween-80
[10] = dose: 400.0 mg/kg/injection, schedule: Q04DX002 (ip), vehicle: saline with Tween-80

Measured: T/C

CC(/C=C/c1ccccc1)=N\NC(=O)C(N)=O
inactive: dose: 12.5 mg/kg/injection, schedule: Q01DX009 (ip), vehicle: saline with Tween-80 97 % of control | dose: 25.0 mg/kg/injection, schedule: Q01DX009 (ip), vehicle: saline with Tween-80 97 % of control | [1] 96 % of control | [2] 100 % of control | dose: 100.0 mg/kg/injection, schedule: Q01DX009 (ip), vehicle: saline 91 % of control | dose: 200.0 mg/kg/injection, schedule: Q01DX009 (ip), vehicle: saline 98 % of control

CC(C)CCN=C(N)N=C(N)N
inactive: [3] 100 % of control | [4] 109 % of control

C/C=C1\C(=O)O[C@@]23C=C[C@H]4C(C(=O)OC)=CO[C@@H](O[C@H]12)[C@H]43
inactive: dose: 0.63 mg/kg/injection, schedule: Q01DX009 (ip), vehicle: Klucel (hydroxypropylcellulose) (HPC) 100 % of control | dose: 0.63 mg/kg/injection, schedule: Q01DX009 (ip), vehicle: saline 98 % of control | dose: 1.25 mg/kg/injection, schedule: Q01DX009 (ip), vehicle: Klucel (hydroxypropylcellulose) (HPC) 100 % of control | dose: 1.25 mg/kg/injection, schedule: Q01DX009 (ip), vehicle: saline 98 % of control | dose: 2.5 mg/kg/injection, schedule: Q01DX009 (ip), vehicle: Klucel (hydroxypropylcellulose) (HPC) 98 % of control | dose: 2.5 mg/kg/injection, schedule: Q01DX009 (ip), vehicle: saline 100 % of control | dose: 5.0 mg/kg/injection, schedule: Q01DX009 (ip), vehicle: Klucel (hydroxypropylcellulose) (HPC) 100 % of control | dose: 5.0 mg/kg/injection, schedule: Q01DX009 (ip), vehicle: saline 98 % of control | dose: 10.0 mg/kg/injection, schedule: Q01DX009 (ip), vehicle: saline 104 % of control | dose: 20.0 mg/kg/injection, schedule: Q01DX009 (ip), vehicle: saline 113 % of control

CCOCNC=O
inactive: dose: 125.0 mg/kg/injection, schedule: Q01DX005 (ip), vehicle: water 107 % of control | dose: 250.0 mg/kg/injection, schedule: Q01DX005 (ip), vehicle: water 100 % of control | dose: 500.0 mg/kg/injection, schedule: Q01DX005 (ip), vehicle: water 107 % of control | dose: 1000.0 mg/kg/injection, schedule: Q01DX005 (ip), vehicle: water 112 % of control

O=C(Cn1ccnc1)Nc1ccc(Cl)cc1C(=O)c1ccccc1
inactive: dose: 50.0 mg/kg/injection, schedule: Q01DX005 (ip), vehicle: saline with Tween-80 95 % of control | dose: 100.0 mg/kg/injection, schedule: Q01DX005 (ip), vehicle: saline with Tween-80 92 % of control

Nc1ccn(COC(CO)CO)c(=O)n1
inactive: dose: 100.0 mg/kg/injection, schedule: Q04DX002 (ip), vehicle: saline 97 % of control | dose: 200.0 mg/kg/injection, schedule: Q04DX002 (ip), vehicle: saline 98 % of control | dose: 400.0 mg/kg/injection, schedule: Q04DX002 (ip), vehicle: saline 103 % of control

COC(=O)[C@@]12OC[C@]34[C@H]([C@@H](O)[C@@H]1O)[C@@]1(C)CC(=O)C(O)=C(C)[C@@H]1C[C@H]3OC(=O)[C@H](OC(=O)C(Cc1ccccc1)NC(=O)OC(C)(C)C)[C@@H]24 (stereo partly specified)
inactive: dose: 125.0 micrograms/kg/injection, schedule: Q01DX005 (ip), vehicle: Klucel (hydroxypropylcellulose) (HPC) 113 % of control | dose: 250.0 micrograms/kg/injection, schedule: Q01DX005 (ip), vehicle: Klucel (hydroxypropylcellulose) (HPC) 100 % of control | dose: 500.0 micrograms/kg/injection, schedule: Q01DX005 (ip), vehicle: Klucel (hydroxypropylcellulose) (HPC) 116 % of control | dose: 1000.0 micrograms/kg/injection, schedule: Q01DX005 (ip), vehicle: Klucel (hydroxypropylcellulose) (HPC) 114 % of control

Cc1ccc(S(=O)(=O)N/N=C(\C(=O)O)c2ccccc2)cc1
inactive: dose: 12.5 mg/kg/injection, schedule: Q01DX009 (ip), vehicle: Klucel (hydroxypropylcellulose) (HPC) 102 % of control | dose: 25.0 mg/kg/injection, schedule: Q01DX009 (ip), vehicle: Klucel (hydroxypropylcellulose) (HPC) 97 % of control | [5] 96 % of control | [6] 94 % of control | [7] 93 % of control

COCC(CN1CCN(c2ccccc2OC)CC1)OC (stereo unspecified)
inactive: dose: 12.5 mg/kg/injection, schedule: Q01DX009 (ip), vehicle: saline 97 % of control | dose: 25.0 mg/kg/injection, schedule: Q01DX009 (ip), vehicle: saline 98 % of control | [2] 90 % of control

O=S1(=O)Cc2ccccc21
inactive: dose: 100.0 mg/kg/injection, schedule: Q01DX001 (ip), vehicle: Klucel (hydroxypropylcellulose) (HPC) 92 % of control | dose: 200.0 mg/kg/injection, schedule: Q01DX001 (ip), vehicle: Klucel (hydroxypropylcellulose) (HPC) 98 % of control

CCCCCCCCCCC(O)C1CCC(C2CCC(C(O)C(=O)CCCCCCCCCCCC3CC(C)OC3=O)O2)O1 (stereo unspecified)
inactive: dose: 0.35 mg/kg/injection, schedule: Q01DX005 (ip), vehicle: Klucel (hydroxypropylcellulose) (HPC) 107 % of control and 115 % of control | dose: 0.7 mg/kg/injection, schedule: Q01DX005 (ip), vehicle: Klucel (hydroxypropylcellulose) (HPC) 112 % of control and 119 % of control | dose: 1.4 mg/kg/injection, schedule: Q01DX005 (ip), vehicle: Klucel (hydroxypropylcellulose) (HPC) 120 % of control

CC(C)=CC1C(/C(C)=C/CCCCC(=O)O)C1(C)C (stereo unspecified)
inactive: [8] 101 % of control | [9] 94 % of control | [10] 96 % of control

COn1nnc2cc(Cl)ccc21
inactive: [8] 107 % of control | [9] 98 % of control | [10] 98 % of control

COc1cc([C@@H]2c3cc4c(cc3[C@H](OC(=O)CCCC(=O)O)[C@H]3COC(=O)[C@H]23)OCO4)cc(OC)c1OC
inactive: dose: 3.12 mg/kg/injection, schedule: Q01DX005 (ip), vehicle: saline 100 % of control | dose: 6.25 mg/kg/injection, schedule: Q01DX005 (ip), vehicle: saline 104 % of control | dose: 12.5 mg/kg/injection, schedule: Q01DX005 (ip), vehicle: saline 110 % of control and 122 % of control

CN(C)C(=S)C(O)(c1ccccc1)c1ccccc1
inactive: [5] 90 % of control | [6] 100 % of control | [7] 97 % of control

CC(C)CC(NC(=O)C(Cc1ccccc1)NC(=O)OCCc1ccccn1)C(=O)OC(C)(C)C (stereo unspecified)
inactive: [3] 101 % of control | [4] 95 % of control | dose: 240.0 mg/kg/injection, schedule: Q01DX005 (ip), vehicle: saline 87 % of control

Fc1ccc(NC(=S)SCc2ccc(Cl)c(Cl)c2)c(F)c1
inactive: dose: 50.0 mg/kg/injection, schedule: Q01DX009 (ip), vehicle: suspension in saline 93 % of control | dose: 100.0 mg/kg/injection, schedule: Q01DX009 (ip), vehicle: suspension in saline 100 % of control | dose: 200.0 mg/kg/injection, schedule: Q01DX009 (ip), vehicle: suspension in saline 88 % of control

C/C(=N\N=Nc1ccc(N(C)C)cc1)c1ccccc1
inactive: dose: 60.0 mg/kg/injection, schedule: Q01DX005 (ip), vehicle: Klucel + Tween-80 100 % of control | dose: 120.0 mg/kg/injection, schedule: Q01DX005 (ip), vehicle: Klucel + Tween-80 99 % of control

O=C1OC(OCC#CCOC2OC(=O)C(Cl)=C2Cl)C(Cl)=C1Cl (stereo unspecified)
inactive: dose: 15.0 mg/kg/injection, schedule: Q01DX005 (ip), vehicle: saline with Tween-80 112 % of control | dose: 30.0 mg/kg/injection, schedule: Q01DX005 (ip), vehicle: saline with Tween-80 105 % of control | dose: 60.0 mg/kg/injection, schedule: Q01DX005 (ip), vehicle: saline with Tween-80 115 % of control and 93 % of control

OCC(O)C(O)C(O)C(O)c1nn[nH]n1 (stereo unspecified)
inactive: dose: 100.0 mg/kg/injection, schedule: Q01DX001 (ip), vehicle: saline 95 % of control | dose: 200.0 mg/kg/injection, schedule: Q01DX001 (ip), vehicle: saline 101 % of control | dose: 400.0 mg/kg/injection, schedule: Q01DX001 (ip), vehicle: saline 92 % of control

CC(=O)OC(C[Se]c1ccccc1)OC(C)=O
inactive: dose: 37.5 mg/kg/injection, schedule: Q01DX001 (ip), vehicle: saline with Tween-80 105 % of control | dose: 75.0 mg/kg/injection, schedule: Q01DX001 (ip), vehicle: saline with Tween-80 99 % of control and 105 % of control

O=C(O)/C(=C\c1ccncc1)c1cccc2ccccc12
inactive: [1] 101 % of control | dose: 100.0 mg/kg/injection, schedule: Q01DX009 (ip), vehicle: saline with Tween-80 101 % of control | dose: 200.0 mg/kg/injection, schedule: Q01DX009 (ip), vehicle: saline with Tween-80 111 % of control | dose: 400.0 mg/kg/injection, schedule: Q01DX009 (ip), vehicle: saline with Tween-80 98 % of control
